Where “and” joins values, the source holds several entries; their conditions need not be identical. Identical values can stand only once. Like-named read-outs stand apart in the source and are kept apart here.
Experiments:
[1] = tested on: ECLC5 luciferase cells implanted intracranially; experiment: Intracranial efficacy study; assay type: in vivo, NSG mice; settings: Fig. 8e ECLC5 intracranial; 50 mg/kg BID; treatment day 110; day 0 = 1; individual animals; 50 mg/kg
[2] = tested on: Ba/F3 cells expressing KIF5B–RET^WT; experiment: Growth inhibition assay in Ba/F3 cells (CellTiter-Glo, 72 h); assay type: cell-based
LUAD-0002AS1 cells = experiment: Growth inhibition (alamarBlue, 96 h); assay type: cell-based, human; settings: for raw viability signal (Source Data Fig. 3b-c): LUAD-0002AS1, replicate sets
TT cells (RET C634W) = experiment: Dose-response western blotting, EC50 for inhibition of protein phosphorylation; assay type: cell-based; settings: Homo sapiens
LUAD-0057BS1 cells = experiment: Growth inhibition (alamarBlue, 96 h); assay type: cell-based, human; settings: for raw viability signal (Source Data Fig. 3b-c): LUAD-0057BS1, replicate sets
Ba/F3-CCDC6::RET^S904F = experiment: Growth inhibition assay in Ba/F3 cells (CellTiter-Glo, 72 h); assay type: cell-based
TT cells = experiment: Growth inhibition (alamarBlue, 96 h); assay type: cell-based, human; settings: for raw viability signal (Source Data Fig. 3b-c): replicate sets
LC-2/ad cells = experiment: Growth inhibition (alamarBlue, 96 h); assay type: cell-based, human; settings: for raw viability signal (Source Data Fig. 3b-c): LC-2/Ad, replicate sets
[3] = tested on: HBECp53-RET cells (CCDC6-RET fusion); experiment: Growth inhibition (alamarBlue, 96 h); assay type: cell-based, human; settings: for raw viability signal (Source Data Fig. 3b-c): HBEC-RET, replicate sets
[4] = tested on: Ba/F3 cells expressing KIF5B–RET^G810S; experiment: Growth inhibition assay in Ba/F3 cells (CellTiter-Glo, 72 h); assay type: cell-based; settings: replicate Sets 1-3
LUAD-0087AS2 cells = experiment: Growth inhibition (alamarBlue, 96 h); assay type: cell-based, human; settings: for raw viability signal (Source Data Fig. 3b-c): LUAD-0087AS2, replicate sets
[5] = Homo sapiens, 96 h, read-out: IC50 for Inhibition of Growth (95% CI)

## COCc1ccc(NC(=O)c2c(C#CCN3CCOCC3)n(C3(C)CC3)c3ncnc(N)c23)cc1 [Vepafestinib, 4-amino-N-[4-(methoxymethyl)phenyl]-7-(1-methylcyclopropyl)-6-[3-(morpholin-4-yl)prop-1-yn-1-yl]-7H-pyrrolo[2,3-d]pyrimidine-5-carboxamide]
[1]
  Luminescence Data: 0.2991 and 0.6305 and 0.5409 and 0.02851
[2]; Ba/3-KIF5B-RET, replicate sets
  GI50: 8.96 nM and 6.78 nM
[2]; Mus musculus, BaF3, 72 h, read-out: GI50 value (Mean ± SD), Ba/F3-KIF5B::RET, CellTiter-Glo, 72 h
  GI50: 8.27 ± 1.29 nM
[2]; Mus musculus, BaF3, Ba/3-KIF5B-RET, replicate sets
  GI50: 9.06 nM
LUAD-0002AS1 cells; [5]
  IC50: 6 nM
LUAD-0002AS1 cells; 0.01 nM
  raw viability signal (Source Data Fig. 3b-c): 16782.2 and 12668.5 and 13089
LUAD-0002AS1 cells; 0.1 nM
  raw viability signal (Source Data Fig. 3b-c): 15237.2 and 13944 and 12774.4
LUAD-0002AS1 cells; 1 nM
  raw viability signal (Source Data Fig. 3b-c): 14596.9 and 11925.3 and 12443
LUAD-0002AS1 cells; 10 nM
  raw viability signal (Source Data Fig. 3b-c): 5820.38 and 4419.86 and 6264.61
LUAD-0002AS1 cells; 100 nM
  raw viability signal (Source Data Fig. 3b-c): 2459.35 and 2506.15 and 3193.42
LUAD-0002AS1 cells; 1000 nM
  raw viability signal (Source Data Fig. 3b-c): 1853.86 and 1731.17 and 3413.68
LUAD-0002AS1 cells; 10000 nM
  raw viability signal (Source Data Fig. 3b-c): 1864.65 and 2510.44 and 3189.66
TT cells (RET C634W); read-out: EC50 for Inhibition of Protein Phosphorylation (95% CI), AKT S473, 2 h, densitometry
  EC50: 2.4 nM
TT cells (RET C634W); read-out: EC50 for Inhibition of Protein Phosphorylation (95% CI), ERK1/2 T202/Y204, 2 h, densitometry
  EC50: 0.3 nM
TT cells (RET C634W); read-out: EC50 for Inhibition of Protein Phosphorylation (95% CI), MEK1/2 S217/S221, 2 h, densitometry
  EC50: 2.1 nM
TT cells (RET C634W); read-out: EC50 for Inhibition of Protein Phosphorylation (95% CI), P70 RSK T421/S424, 2 h, densitometry
  EC50: 1.1 nM
TT cells (RET C634W); read-out: EC50 for Inhibition of Protein Phosphorylation (95% CI), RET Y905, 2 h, densitometry
  EC50: 0.3 nM
TT cells (RET C634W); read-out: EC50 for Inhibition of Protein Phosphorylation (95% CI), S6RP S235/S236, 2 h, densitometry
  EC50: 0.7 nM
LUAD-0057BS1 cells; [5]
  IC50: 60 nM
LUAD-0057BS1 cells; 0.01 nM
  raw viability signal (Source Data Fig. 3b-c): 17419.2 and 15925.4 and 18689.8 and 23015.1
LUAD-0057BS1 cells; 0.1 nM
  raw viability signal (Source Data Fig. 3b-c): 17721.3 and 15866.4 and 19298.6 and 21993.3
LUAD-0057BS1 cells; 1 nM
  raw viability signal (Source Data Fig. 3b-c): 17137.9 and 16657.5 and 19117.5 and 21130.9
LUAD-0057BS1 cells; 10 nM
  raw viability signal (Source Data Fig. 3b-c): 14331 and 15273.4 and 17077.7 and 19439.8
LUAD-0057BS1 cells; 100 nM
  raw viability signal (Source Data Fig. 3b-c): 7158.2 and 6135.51 and 7993.83 and 7600.63
LUAD-0057BS1 cells; 1000 nM
  raw viability signal (Source Data Fig. 3b-c): 3333.45 and 1678.22 and 2095.91 and 2070.83
LUAD-0057BS1 cells; 10000 nM
  raw viability signal (Source Data Fig. 3b-c): 2605.9 and 881.24 and 1045.29 and 1424.56
Ba/F3-CCDC6::RET^S904F; BaF3/CCDC6-RET, read-out: GI50 values, Ba/F3-CCDC6::RET S904F, individual sets (replicate experiments)
  GI50: 28.5 nM
Ba/F3-CCDC6::RET^S904F; Mus musculus, BaF3, 72 h, read-out: GI50 value (Mean ± SD), Ba/F3-CCDC6::RET^S904F, CellTiter-Glo, 72 h
  GI50: 24.7 ± 5 nM
Ba/F3-CCDC6::RET^S904F; read-out: GI50 values, Ba/F3-CCDC6::RET S904F, individual sets (replicate experiments)
  GI50: 26.7 nM and 19.1 nM
TT cells; 0.01 nM
  raw viability signal (Source Data Fig. 3b-c): 22992.9 and 26706 and 26833.9 and 13728.7 and 29403.6
TT cells; 0.1 nM
  raw viability signal (Source Data Fig. 3b-c): 22728 and 26400.4 and 33154.7 and 10987.6 and 26655.8
TT cells; 1 nM
  raw viability signal (Source Data Fig. 3b-c): 22046.8 and 26424.3 and 31146.9 and 10280.3 and 23063
TT cells; 10 nM
  raw viability signal (Source Data Fig. 3b-c): 18366.2 and 23539.3 and 23168.9 and 8667.42 and 19947.5
TT cells; 100 nM
  raw viability signal (Source Data Fig. 3b-c): 10434.7 and 14002.8 and 12336.3 and 4688.9 and 15375.8
TT cells; 1000 nM
  raw viability signal (Source Data Fig. 3b-c): 10759 and 11509.2 and 9437.03 and 4745.5 and 14900.8
TT cells; 10000 nM
  raw viability signal (Source Data Fig. 3b-c): 11538.8 and 12388.7 and 14343.9 and 2691.86 and 17063
TT cells; [5]
  IC50: 24 nM
LC-2/ad cells; Homo sapiens, LC-2-ad, 96 h, read-out: IC50 for Inhibition of Growth (95% CI)
  IC50: 15 nM
LC-2/ad cells; 0.01 nM
  raw viability signal (Source Data Fig. 3b-c): 13380.1 and 23532.8
LC-2/ad cells; 0.1 nM
  raw viability signal (Source Data Fig. 3b-c): 13890.3 and 20497.1
LC-2/ad cells; 1 nM
  raw viability signal (Source Data Fig. 3b-c): 12571.5 and 21458.9
LC-2/ad cells; 10 nM
  raw viability signal (Source Data Fig. 3b-c): 6299.39 and 16710
LC-2/ad cells; 100 nM
  raw viability signal (Source Data Fig. 3b-c): 4794.24 and 3373.89
LC-2/ad cells; 1000 nM
  raw viability signal (Source Data Fig. 3b-c): 5340.72 and 2243.82
LC-2/ad cells; 10000 nM
  raw viability signal (Source Data Fig. 3b-c): 3810.66 and 1837.55
[3]; 0.01 nM
  raw viability signal (Source Data Fig. 3b-c): 18957.1 and 8244.84 and 10678.9 and 16541.7
[3]; 0.1 nM
  raw viability signal (Source Data Fig. 3b-c): 17482 and 10966 and 10873.4 and 16651.3
[3]; 1 nM
  raw viability signal (Source Data Fig. 3b-c): 17298.8 and 10767.5 and 11130.6 and 16468.7
[3]; 10 nM
  raw viability signal (Source Data Fig. 3b-c): 5536.96 and 10230.4 and 9156.41 and 16208.5
[3]; 100 nM
  raw viability signal (Source Data Fig. 3b-c): 4544.29 and 6087.71 and 3084.29 and 6640.5
[3]; 1000 nM
  raw viability signal (Source Data Fig. 3b-c): 2966.02 and 1973.98 and 3130.94 and 5863.55
[3]; 10000 nM
  raw viability signal (Source Data Fig. 3b-c): 3124.48 and 1006.63 and 1869.57 and 4627.96
[3]; Homo sapiens, 96 h, read-out: IC50 for Inhibition of Growth (95% CI), HBECp53-RET, alamarBlue, 96 h
  IC50: 65 nM
[4]; Ba/3-KIF5B-RET-G810S
  GI50: 14.7 nM and 13.1 nM
[4]; Mus musculus, BaF3, Ba/3-KIF5B-RET-G810S
  GI50: 7.93 nM
LUAD-0087AS2 cells; [5]
  IC50: 52 nM
LUAD-0087AS2 cells; 0.01 nM
  raw viability signal (Source Data Fig. 3b-c): 11228 and 14615.9 and 14016.7 and 14250.8
LUAD-0087AS2 cells; 0.1 nM
  raw viability signal (Source Data Fig. 3b-c): 11523.4 and 15236.1 and 13636.1 and 15169.5
LUAD-0087AS2 cells; 1 nM
  raw viability signal (Source Data Fig. 3b-c): 9899.07 and 15123.8 and 13931.5 and 14165.7
LUAD-0087AS2 cells; 10 nM
  raw viability signal (Source Data Fig. 3b-c): 10547.8 and 8202.29 and 13996.8 and 13713.3
LUAD-0087AS2 cells; 100 nM
  raw viability signal (Source Data Fig. 3b-c): 5765.45 and 5334.21 and 3421.1 and 4734.04
LUAD-0087AS2 cells; 1000 nM
  raw viability signal (Source Data Fig. 3b-c): 2843.25 and 5162.03 and 1552.19 and 1343.68
LUAD-0087AS2 cells; 10000 nM
  raw viability signal (Source Data Fig. 3b-c): 1385.86 and 3882.23 and 977.192 and 943.954

From paper PMC10518257 (Nature Cancer, 2023)
